Drawing on EP4714939A1, “SULFONAMIDE COMPOUND, PREPARATION METHOD THEREFOR, AND PHARMACEUTICAL USE THEREOF” (Shenzhen Salubris Pharmaceuticals Co., Ltd., priority 2023, dated 2024), this text covers IC90 for 28 molecules.

As usually defined, the IC90 is the point of the concentration-response curve where the effect stands at 90%. Read a low IC90 as greater potency.

The subject of this experiment is Lp(a). Put plainly: In-vitro Lp(a) assembly assay (cell-free, sandwich ELISA). The format is biochemical. Conditions: inhibition of Lp(a) formation; HepG2 and HEK293 (human Apo(a), 17 Kringle repeats) conditioned media, 37°C, 2 hours; 4-parameter curve. As for the experimental part: The capability of the compounds in the examples inhibiting the formation of Lp(a) particles in vitro was evaluated through cell-free assembly assay. After incubation at 37°C with 5% CO2 for 96 h, conditioned media (supplemented with 10% FBS, 20 mM HEPES, and 1 × penicillin/streptomycin DMEM) was collected from confluent wild-type HepG2 cells (source of endogenously expressed ApoB) and an HEK293 stable cell line expressing human Apo(a) protein containing 17 Kringle repeats (selected on 1 ug/ml puromycin). In-vitro assembly assay was performed by combining equal parts of HepG2 and HEK293 conditioned media with compounds under test added in a dilution series (final concentration being 0.03-1000 nM). A reaction was incubated at 37°C for 2 hours, and terminated by adding 6-aminocaproic acid (EACA) to a final concentration of 150 mM. Sandwich ELISA was used to detect Lp(a) using an anti-Apo(a) capture antibody (ab242565) and an HRP-conjugated anti-ApoB detection antibody (ab27622). ELISA was performed using TMB staining, and terminated with 1N sulfuric acid, and signals were read at 450 nm on an Envision 2104 plate reader. By setting an assembly reaction without inhibitors to 0% inhibition and an assembly reaction with the minimum amount of HepG2 conditioned medium (50-fold dilution) to 100% inhibition, the % inhibition of Lp(a) formed under each test condition was determined. Table 1 IC90 values of sulfonamide compounds
A general note: ELISA stands for enzyme-linked immunosorbent assay.
`O=C(O)[C@@H](Cc1cccc(CN(Cc2ccc(F)c(C[C@H](C(=O)O)[C@H]3CCNC3)c2)S(=O)(=O)c2cccc(C[C@H](C(=O)O)[C@H]3CCNC3)c2)c1)[C@H]1CCNC1` [Compound 2] yielded an IC90 of 0.0626 µM.
On to `O=C(O)[C@@H](Cc1cccc(CN(Cc2cc(C[C@H](C(=O)O)[C@H]3CCNC3)ccc2F)S(=O)(=O)c2cccc(C[C@H](C(=O)O)[C@H]3CCNC3)c2)c1)[C@H]1CCNC1` [Compound 4], for which the IC90 came out at 0.0403 µM.
As for `O=C(O)[C@@H](Cc1cccc(CN(Cc2cccc(C[C@H](C(=O)O)[C@H]3CCNC3)c2F)S(=O)(=O)c2cccc(C[C@H](C(=O)O)[C@H]3CCNC3)c2)c1)[C@H]1CCNC1` [Compound 5], the 90% effect level (IC90) was put at 0.0379 µM.
Consider `O=C(O)[C@@H](Cc1cccc(CN(Cc2cccc(C[C@H](C(=O)O)[C@H]3CCNC3)c2)S(=O)(=O)c2ccc(F)c(C[C@H](C(=O)O)[C@H]3CCNC3)c2)c1)[C@H]1CCNC1` [Compound 6], for which the IC90 was 0.0478 µM.
Molecule `O=C(O)C(Cc1cccc(CN(Cc2cccc(CC(C(=O)O)C3CCNC3)c2)S(=O)(=O)c2cc(F)cc(CC(C(=O)O)C3CCNC3)c2)c1)C1CCNC1` [Compound 7, (2S,2'S)-3,3'(3-((S)-2-carboxyl-2-(R)-pyrrolid-3-yl)ethyl)-5-fluorophenyl sulfonyl)azadiyl)dimethylenyl)bis(3,1-phenylenyl)bis(2-(R)-pyrrolid-3-yl)propanoic acid)] showed an IC90 of 0.0699 µM.
Turning to `O=C(O)C(Cc1cccc(CN(Cc2cccc(CC(C(=O)O)C3CCNC3)c2)S(=O)(=O)c2cccc(CC(C(=O)O)C3CCNC3)c2F)c1)C1CCNC1` [Compound 8, (2S,2'S)-3,3'(3-(S)-2-carboxyl-2-(R)-pyrrolid-3-yl)ethyl)-2-fluorophenyl sulfonyl)azadiyl)dimethylenyl)bis(3,1-phenylenyl)bis(2-(R)-pyrrolid-3-yl)propanoic acid)], it took 0.0261 µM to reach the 90% level (IC90).
As to `O=C(O)[C@@H](Cc1cccc(CN(Cc2ccc(Cl)c(C[C@H](C(=O)O)[C@H]3CCNC3)c2)S(=O)(=O)c2cccc(C[C@H](C(=O)O)[C@H]3CCNC3)c2)c1)[C@H]1CCNC1` [Compound 10], the 90% effect level (IC90) was put at 0.0523 µM.
Molecule `O=C(O)[C@@H](Cc1cccc(S(=O)(=O)N(Cc2cc(C[C@H](C(=O)O)[C@H]3CCNC3)ccc2F)Cc2cc(C[C@H](C(=O)O)[C@H]3CCNC3)ccc2F)c1)[C@H]1CCNC1` [Compound 13] yielded an IC90 of 0.0115 µM.
Molecule `O=C(O)[C@@H](Cc1cccc(S(=O)(=O)N(Cc2ccc(F)c(C[C@H](C(=O)O)[C@H]3CCNC3)c2)Cc2cc(C[C@H](C(=O)O)[C@H]3CCNC3)ccc2F)c1)[C@H]1CCNC1` [Compound 14] had an IC90 of 0.0244 µM.
With `O=C(O)[C@@H](Cc1cccc(CN(Cc2cc(C[C@H](C(=O)O)[C@H]3CCNC3)c(F)cc2F)S(=O)(=O)c2cccc(C[C@H](C(=O)O)[C@H]3CCNC3)c2)c1)[C@H]1CCNC1` [Compound 15], the IC90 turned out to be 0.016 µM.
Regarding `O=C(O)[C@@H](Cc1cccc(S(=O)(=O)N(Cc2cc(C[C@H](C(=O)O)[C@H]3CCNC3)c(F)cc2F)Cc2cc(C[C@H](C(=O)O)[C@H]3CCNC3)c(F)cc2F)c1)[C@H]1CCNC1` [Compound 16], it took 0.0238 µM to reach the 90% level (IC90).
Molecule `O=C(O)[C@@H](Cc1cccc(CCN(CCc2ccccc2C[C@H](C(=O)O)[C@H]2CCNC2)S(=O)(=O)c2cccc(C[C@H](C(=O)O)[C@H]3CCNC3)c2)c1)[C@H]1CCNC1` [Compound 19] had an IC90 of 0.0409 µM.
`O=C(O)[C@@H](Cc1cccc(CCN(Cc2cccc(C[C@H](C(=O)O)[C@H]3CCNC3)c2)S(=O)(=O)c2cccc(C[C@H](C(=O)O)[C@H]3CCNC3)c2)c1)[C@H]1CCNC1` [Compound 20] showed an IC90 of 0.0307 µM.
`O=C(O)C(Cc1cccc(CCN(CCc2cccc(CC(C(=O)O)C3CCNC3)c2)S(=O)(=O)c2cccc(CC(C(=O)O)C3CCNC3)c2)c1)C1CCNC1` [Compound 21, (2S,2'S)-3,3'(3-((S)-2-carboxyl-2-((R)-pyrrolid-3-yl)ethyl)phenyl)sulfonyl)azadiyl)bis(ethane-2,1-diyl))bis(3,1-phenylenyl)bis(2-(R)-pyrrolid-3-yl)propanoic acid)] came in with an IC90 of 0.0339 µM.
The molecule `O=C(O)C(Cc1cccc(CN(Cc2ccccc2CC(C(=O)O)C2CCNC2)S(=O)(=O)c2cccc(CC(C(=O)O)C3CCNC3)c2)c1)C1CCNC1` [Compound 23, (S)-3-(3-(((3-(S)-2-carboxyl-2-((R)-pyrrolid-3-yl)ethyl)-N-(2-((S)2-carboxyl-2-(R)pyrrolid-3-yl)ethyl)benzyl)phenyl)sulfonamido)methyl)phenyl)-2-((R)-pyrrolid-3-yl)propanoic acid] yielded a concentration for an effect of 90% (IC90) of 0.0762 µM.
Take `O=C(O)[C@@H](Cc1cccc(S(=O)(=O)N(CCc2ccccc2C[C@H](C(=O)O)[C@H]2CCNC2)Cc2ccc(F)c(C[C@H](C(=O)O)[C@H]3CCNC3)c2)c1)[C@H]1CCNC1` [Compound 24]: the 90% effect level (IC90) was put at 0.0258 µM.
Turning to `O=C(O)[C@@H](Cc1cccc(S(=O)(=O)N(CCc2ccccc2C[C@H](C(=O)O)[C@H]2CCNC2)Cc2cccc(C[C@H](C(=O)O)[C@H]3CCNC3)c2F)c1)[C@H]1CCNC1` [Compound 25, (S)-3-(3-(N-(3-((S)-2-carboxyl-2-((R)-pyrrolid-3-yl)etyhl)-2-fluorobenzyl) -N-(2-(S)2-carboxyl-2-((R)-pyrrolid-3-yl)ethyl)phenethyl)aminosulfonyl)phenyl)-2-(((R)-pyrrolid-3-yl)propanoic acid], the IC90 worked out at 0.0817 µM.
As to `O=C(O)[C@@H](Cc1cccc(S(=O)(=O)N(CCc2ccccc2C[C@H](C(=O)O)[C@H]2CCNC2)Cc2cc(C[C@H](C(=O)O)[C@H]3CCNC3)ccc2F)c1)[C@H]1CCNC1` [Compound 26], the IC90 turned out to be 0.0867 µM.
`O=C(O)[C@@H](Cc1cccc(S(=O)(=O)N(CCc2ccccc2C[C@H](C(=O)O)[C@H]2CCNC2)Cc2cc(C[C@H](C(=O)O)[C@H]3CCNC3)c(F)cc2F)c1)[C@H]1CCNC1` [Compound 27] displayed an IC90 of 0.0796 µM.
`O=C(O)[C@@H](Cc1cc(F)cc(CCN(Cc2cccc(C[C@H](C(=O)O)[C@H]3CCNC3)c2)S(=O)(=O)c2cccc(C[C@H](C(=O)O)[C@H]3CCNC3)c2)c1)[C@H]1CCNC1` [Compound 28] registered an IC90 of 0.0865 µM.
In turn, `O=C(O)C(Cc1cccc(CN(Cc2cccc(CC(C(=O)O)C3CCNC3)c2)S(=O)(=O)c2cc(CC(C(=O)O)C3CCNC3)ccc2F)c1)C1CCNC1` [Compound 29, (2S,2'S)-3,3'(5-((S)-2-carboxyl-2-(R)-pyrrolid-3-yl)ethyl)-2-fluorophenyl sulfonyl)azadiyl)dimethylenyl)bis(3,1-phenylenyl)bis(2-(R)-pyrrolid-3-yl)propanoic acid)] displayed an IC90 of 0.0249 µM.
Regarding `O=C(O)[C@@H](Cc1cccc(CN(Cc2ccc(F)c(C[C@H](C(=O)O)[C@H]3CCNC3)c2F)S(=O)(=O)c2cccc(C[C@H](C(=O)O)[C@H]3CCNC3)c2)c1)[C@H]1CCNC1` [Compound 30], the 90% effect level (IC90) was put at 0.029 µM.
`O=C(O)C(Cc1cccc(S(=O)(=O)N(Cc2c(F)ccc(CC(C(=O)O)C3CCNC3)c2F)Cc2c(F)ccc(CC(C(=O)O)C3CCNC3)c2F)c1)C1CCNC1` [Compound 31, (2S,2'S)-3,3'-((3-((S)-2-carboxyl-2-(R)-pyrrolid-3-yl)ethyl)phenyl)sulfonyl)azadiyl)bis(methylenyl))bis(2,6-difluoro-3,1-phenylenyl)bis(2-(R)-pyrrolid-3-yl)propanoic acid)] returned an IC90 of 0.0211 µM.
As for `O=C(O)[C@@H](Cc1cccc(CN(Cc2c(F)ccc(C[C@H](C(=O)O)[C@H]3CCNC3)c2F)S(=O)(=O)c2cccc(C[C@H](C(=O)O)[C@H]3CCNC3)c2)c1)[C@H]1CCNC1` [Compound 32], the IC90 was found to be 0.0314 µM.
The result for `O=C(O)C(Cc1ccc(F)c(CN(Cc2cc(CC(C(=O)O)C3CCNC3)ccc2F)S(=O)(=O)c2ccc(F)c(CC(C(=O)O)C3CCNC3)c2)c1)C1CCNC1` [Compound 34, (2S,2'S)-3,3'-(((((3-((S)-2-carboxyl-2-((R)-pyrrolid-3-yl)ethyl)-4-fluorophenyl)sulfonyl)azadiyl)bis(methylenyl))bis(6-fluoro-3,1-phenylenyl))bis(2-((R)-pyrrolid-3-yl)propanoic acid)] reads 0.0177 µM; that for `O=C(O)C(Cc1cccc(CN(Cc2cccc(CC(C(=O)O)C3CCNC3)c2)S(=O)(=O)c2ccc(Cl)c(CC(C(=O)O)C3CCNC3)c2)c1)C1CCNC1` [Compound 35, (2S,2'S)-3,3'-(((((3-((S)-2-carboxyl-2-((R)-pyrrolid-3-yl)ethyl)-4-chlorophenyl)sulfonyl)azadiyl)bis(methylenyl))bis(3,1-phenylenyl))bis(2-((R)-pyrrolid-3-yl)propanoic acid)], 0.0413 µM; that for `O=C(O)[C@@H](Cc1cc(CN(Cc2ccc(F)c(C[C@H](C(=O)O)[C@H]3CCNC3)c2)S(=O)(=O)c2ccc(Cl)c(C[C@H](C(=O)O)[C@H]3CCNC3)c2)ccc1F)[C@H]1CCNC1` [Compound 36, (2S,2'S)-3,3'-(((((3-((S)-2-carboxyl-2-((R)-pyrrolid-3-yl)ethyl)-4-chlorophenyl)sulfonyl)azadiyl)bis(methylenyl))bis(6-fluoro-3,1-phenylenyl))bis(2-((R)-pyrrolid-3-yl)propanoic acid)], 0.0216 µM.
As for `O=C(O)[C@@H](Cc1cccc(CCN(Cc2ccc(Cl)c(C[C@H](C(=O)O)[C@H]3CCNC3)c2)S(=O)(=O)c2cccc(C[C@H](C(=O)O)[C@H]3CCNC3)c2)c1)[C@H]1CCNC1` [Compound 38], the 90% effect level (IC90) was put at 0.0818 µM.
